# Source: paper PMC4071002, “Identification and In Vitro Reactivity of Celiac Immunoactive Peptides in an Apparent Gluten-Free Beer” (PLoS ONE, 2014)
# Residues, ends and D or L forms follow the SMILES beside them.
# Tested on: moAb A1 (anti-gliadin 33-mer)
# Test: A1 competitive ELISA (immobilized gliadin, A1-HRP)
# Type: binding
# Conditions: Figure 2A
# Procedure: Maxisorp microtitre plates (Nunc, Roskilde, Denmark) were coated with gliadin solution (Sigma, St Louis, MO, USA) and incubated overnight at 4°C. The plates were washed with phosphate-buffered saline (PBS) containing 0.05% Tween 20 and blocked with 5% non-fat dry milk in PBS for 1 h at room temperature (RT). 33-mer peptide was used as standard. Serial dilutions of peptides were made in PBS-bovine serum albumin (BSA) 3%, to each of which was added G12-HRP or A1-HRP antibody solution [14]. The samples were pre-incubated at RT, and then added to the wells. After 30 min of incubation at RT, the plates were washed and substrate solution (TMB, Sigma) was added. The reaction was stopped with 1 M sulphuric acid, and the absorbance at 450 nm was measured (microplate reader UVM340; Asys Hitech GmbH, Eugendorf, Austria). Two separate assays were performed, each with three repetitions.
# Peptide curves were obtained by plotting percentage maximum absorbance against logarithm of antigen concentration. The software package Sigma Plot 9.0 (Systat Software, Inc., Point Richmond, CA, USA) was used to calculate IC50 and the cross-reactivity (CR) for each peptide. The IC50 is defined as the concentration that produces a reduction of 50% in the peak signal in the ELISA. The CR was determined as (IC50 of the peptide that presents the greatest affinity for the antibody/IC50 of each peptide assayed) x 100.
compound,measurement,setting,value
CC(C)C[C@H](NC(=O)[C@H](CCC(N)=O)NC(=O)[C@@H](N)CC(C)C)C(=O)N[C@@H](CCC(N)=O)C(=O)N1CCC[C@H]1C(=O)N[C@@H](Cc1ccccc1)C(=O)N1CCC[C@H]1C(=O)N[C@@H](CCC(N)=O)C(=O)N1CCC[C@H]1C(=O)N[C@@H](CCC(N)=O)C(=O)N[C@@H](CC(C)C)C(=O)N1CCC[C@H]1C(=O)N[C@@H](Cc1ccc(O)cc1)C(=O)N1CCC[C@H]1C(=O)N[C@@H](CCC(N)=O)C(=O)N1CCC[C@H]1C(=O)N[C@@H](CCC(N)=O)C(=O)N[C@@H](CC(C)C)C(=O)N1CCC[C@H]1C(=O)N[C@@H](Cc1ccc(O)cc1)C(=O)N1CCC[C@H]1C(=O)N[C@@H](CCC(N)=O)C(=O)N1CCC[C@H]1C(=O)N[C@@H](CCC(N)=O)C(=O)N[C@@H](CC(C)C)C(=O)N1CCC[C@H]1C(=O)N[C@@H](Cc1ccc(O)cc1)C(=O)N1CCC[C@H]1C(=O)N[C@@H](CCC(N)=O)C(=O)N1CCC[C@H]1C(=O)N[C@@H](CCC(N)=O)C(=O)N1CCC[C@H]1C(=O)N[C@@H](Cc1ccccc1)C(=O)O [33-mer] (H-LQLQPFPQPQLPYPQPQLPYPQPQLPYPQPQPF-OH; N-terminus and C-terminus assumed),moAb A1 IC50,"competitive ELISA, gliadin-coated plates, A1-HRP, 30 min RT, absorbance 450 nm, two assays, three replicates each",0.60 µg/mL
same,moAb A1 CR,"cross-reactivity = (IC50 of peptide with greatest affinity / IC50 of each peptide) x 100, PP 24.1 = 100",241.67%
